Assay results reported in the supplement of paper PMC10307832.

Tests used:
Assay in all cases: relative viability (nuclei count vs DMSO), 5 days (fraction); higher = more cells survive
[1] = compound: CN(C)C[C@@H]1CCn2cc(c3ccccc32)C2=C(C(=O)NC2=O)c2cn(c3ccccc23)CCO1 [Ruboxistaurin] + CC(=O)Nc1cccc(-n2c(=O)n(C3CC3)c(=O)c3c(Nc4ccc(I)cc4F)n(C)c(=O)c(C)c32)c1 [Trametinib] (partner 0.02 µM)
Outline: (§1)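 A single step with final 0.05% Triton X-100, 1% formaldehyde and 1 ug/ml Hoechst fixed the cells and stained nuclei 5 days after treatment. Lung cancer cell lines in 1536-well plates had been treated by pin tool the day after seeding with one drug alone or a fixed anchor-drug dose plus five library-drug doses (not always all listed) in √10 steps, and nuclei were counted on 4× images. Relative viability is the ratio of nuclei in treated wells to nuclei in vehicle wells, taken as the median of duplicate plates.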

[2] = compound: CN(C)C[C@@H]1CCn2cc(c3ccccc32)C2=C(C(=O)NC2=O)c2cn(c3ccccc23)CCO1 [Ruboxistaurin] + CC1(C)CCC(c2ccc(Cl)cc2)=C(CN2CCN(c3ccc(C(=O)NS(=O)(=O)c4ccc(N[C@H](CCN5CCOCC5)CSc5ccccc5)c(S(=O)(=O)C(F)(F)F)c4)cc3)CC2)C1 [Navitoclax] (partner 0.5 µM)
Outline: as §1

[3] = compound: CN(C)C[C@@H]1CCn2cc(c3ccccc32)C2=C(C(=O)NC2=O)c2cn(c3ccccc23)CCO1 [Ruboxistaurin] + COc1cccc2cc(-c3nc([C@H]4CC[C@H](C(=O)O)CC4)n4ncnc(N)c34)[nH]c12 [OSI-027] (partner 0.5 µM)
Outline: as §1

[4] = compound: CN(C)C[C@@H]1CCn2cc(c3ccccc32)C2=C(C(=O)NC2=O)c2cn(c3ccccc23)CCO1 [Ruboxistaurin] + Cc1cc(Nc2cc(N3CCN(C)CC3)nc(Sc3ccc(NC(=O)C4CC4)cc3)n2)n[nH]1 [Tozasertib] (partner 0.1 µM)
Outline: as §1

[5] = compound: CN(C)C[C@@H]1CCn2cc(c3ccccc32)C2=C(C(=O)NC2=O)c2cn(c3ccccc23)CCO1 [Ruboxistaurin] + O=C(c1cc(Cc2n[nH]c(=O)c3ccccc23)ccc1F)N1CCN(C(=O)C2CC2)CC1 [Olaparib] (partner 8 µM)
Outline: as §1

Cell Line	relative viability ([1]; first compound 0.08 µM)	relative viability ([1]; first compound 0.8 µM)	relative viability ([1]; first compound 2.53 µM)	relative viability ([1]; first compound 8 µM)	relative viability ([2]; first compound 0.08 µM)	relative viability ([2]; first compound 0.8 µM)	relative viability ([2]; first compound 2.53 µM)	relative viability ([2]; first compound 8 µM)	relative viability ([3]; first compound 0.08 µM)	relative viability ([3]; first compound 0.8 µM)	relative viability ([3]; first compound 2.53 µM)	relative viability ([3]; first compound 8 µM)	relative viability ([4]; first compound 0.08 µM)	relative viability ([4]; first compound 0.8 µM)	relative viability ([4]; first compound 2.53 µM)	relative viability ([4]; first compound 8 µM)	relative viability ([5]; first compound 0.08 µM)	relative viability ([5]; first compound 0.8 µM)	relative viability ([5]; first compound 2.53 µM)	relative viability ([5]; first compound 8 µM)
LXF-289	0.653	0.631	0.66	0.684	0.967	0.928	0.931	1.04	0.804	0.74	0.9	0.623	0.216	0.157	0.195	0.209	1.08	1.01	1.07	1.18
NCI-H23	0.375	0.346	0.409	0.32	0.897	0.59	0.91	0.68	0.601	0.448	0.593	0.457	0.446	0.304	0.357	0.368	0.41	0.251	0.361	0.254
NCI-H322M	0.538	0.477	0.535	0.404	1.2	1.09	1.24	1.19	0.646	0.514	0.514	0.377	0.49	0.426	0.431	0.346	0.764	0.675	0.805	0.329
NCI-H441	0.523	0.453	0.529	0.366	0.682	0.464	0.928	0.66	0.65	0.474	0.607	0.456	0.663	0.594	0.638	0.554	0.498	0.532	0.643	0.643
NCI-H460	0.225	0.113	0.14	0.13	1.2	1.03	1.16	0.935	0.604	0.557	0.501	0.217	0.411	0.257	0.405	0.29	0.461	0.398	0.415	0.391
NCI-H520	0.831	0.627	0.808	0.617	1.24	0.984	1.19	0.955	0.192	0.258	0.233	0.218	0.477	0.456	0.398	0.456	0.321	0.341	0.328	0.291
NCI-H596	0.892	0.766	0.727	0.796	0.962	0.845	0.983	0.69	0.811	0.552	0.799	0.508	0.932	0.8	0.729	0.889	0.545	0.59	0.692	0.659
NCI-H647	0.568	0.374	0.473	0.431	1.23	1	1.17	1.2	0.754	0.532	0.432	0.42	0.199	0.272	0.369	0.172	0.575	0.563	0.912	0.562
NCI-H727	0.361	0.395	0.384	0.367	0.46	0.394	0.458	0.338	0.764	0.416	0.523	0.448	0.69	0.463	0.579	0.536	0.625	0.7	0.722	0.521
NCI-H838	0.58	0.461	0.513	0.504	1.38	1.05	1.3	0.979	0.4	0.33	0.301	0.313	0.28	0.246	0.287	0.292	0.867	0.751	0.838	0.641
NCI-H1355	0.462	0.361	0.394	0.357	1.09	0.853	0.897	0.813	0.444	0.322	0.382	0.297	0.529	0.485	0.484	0.38	0.763	0.712	0.734	0.742
NCI-H1395	1.15	0.846	0.988	1.09	1.12	1.03	1.2	1.06	0.653	0.647	0.662	0.597	0.774	0.709	0.79	0.7	0.465	0.397	0.466	0.474
NCI-H1437	0.517	0.526	0.577	0.477	1.11	1.05	1.15	1.11	0.985	0.793	0.835	0.804	0.434	0.365	0.378	0.417	0.661	0.613	0.666	0.712
NCI-H1650	0.698	0.447	0.613	0.571	1.09	1.2	1.34	1.2	0.711	0.408	0.614	0.376	0.435	0.301	0.433	0.3	0.854	0.709	0.907	0.981
NCI-H1651	0.891	0.736	0.805	0.858	1.08	0.827	1.05	1.11	0.779	0.611	0.653	0.566	0.922	0.639	0.8	0.521	0.178	0.193	0.191	0.182
